Source: US10913224B2, “Ophthalmic devices for delivery of hydrophobic comfort agents” (Novartis AG, priority 2008, dated 2021)
Several values for one entry are separate records, joined by “and”; a condition that tells them apart may be missing. Equal entries are not always repeated.

Tests used:
Type in all cases: physicochemical
[1] = Comfort agent content of Example 6 lenses (exhaustive isopropanol extraction); conditions: comfort agent added to lens formulation, after autoclave
Description: A lens formulation is prepared as detailed in Example 3 where 1,2-dimyristoyl-sn-glycero-3-phosphocholine (DMPC) is added to the formulation at a concentration of 0.75% by weight and where the formulation solvent, 1-propanol, is reduced to 22.65% by weight. Lens curing is as described in Example 3. The lenses are demolded and then extracted in methyl ethyl ketone followed by a rinse in DI water for 56 seconds. The lenses are then dipped in a solution of polyacrylic acid (0.36% wt/vol in 1-propanol, pH-2). The lenses are then rinsed in water for 120 seconds and packaged in phosphate buffered saline. Lenses are then autoclaved for 30 minutes at 121° C. The content of comfort agents, DMPC and L-PEG, are determined as follows. Lenses are exhaustively extracted in isopropanol and the extract is tested for DMPC and N-(carbonyl-methoxypolyethylene glycol-2000)-1,2-disteaoyl-sn-glycero-3-phosphoethanolamine, sodium salt (L-PEG-2000) content. Lenses contain on average 30 μg DMPC and 10 μg L-PEG-2000 per lens.

[2] = First release test: lens in artificial tear fluid (ATF) refreshed every 30 min, DMPC left in lens; conditions: first test: 500 μL ATF replaced every 30 min, 35° C., 8 hrs, n=5
Description: Lenses (as prepared in Example 3) are subjected to one of two release tests in artificial tear fluid (ATF) prepared without any phospholipids and having a composition shown in Table 1. The first test is designed to maximize release of DMPC from the lens by refreshing the ATF frequently. A single lens is placed in 500 μL of ATF and incubated at 35° C. for 8 hrs. Every 30 min, the sample is vortexed, the ATF is withdrawn, a fresh 500 μL aliquot of ATF is added to the lens, the sample is again vortexed, and the sample is returned to the incubator. At the conclusion of 8 hrs, the lenses are removed from ATF, placed in 1 mL clean PBS, and submitted for analysis of DMPC content. The second test is designed to try to maximize the amount of DM PC in ATF by leaving the lens in ATF for the entire release test. A single lens is placed in 1 mL ATF and incubated at 35° C. for 8 hrs. Every 30 min, the sample is vortexed and then returned to the incubator. At the conclusion of 8 hrs, the lens is removed from the ATF and the ATF is submitted for analysis. All analysis is done using an enzymatic assay method.

[3] = Second release test: lens left in ATF for 8 hrs, DMPC in ATF; conditions: second test: 1 mL ATF, 35° C., 3 pooled ATF samples, just below dynamic range of the assay
Description: Lenses (as prepared in Example 3) are subjected to one of two release tests in artificial tear fluid (ATF) prepared without any phospholipids and having a composition shown in Table 1. The second test is designed to try to maximize the amount of DM PC in ATF by leaving the lens in ATF for the entire release test. A single lens is placed in 1 mL ATF and incubated at 35° C. for 8 hrs. Every 30 min, the sample is vortexed and then returned to the incubator. At the conclusion of 8 hrs, the lens is removed from the ATF and the ATF is submitted for analysis. All analysis is done using an enzymatic assay method. Three ATF samples are pooled to increase the DMPC signal. […] The value for the 3 pooled samples is just below the dynamic range of the assay, making confidence in the quantified DMPC levels difficult yet still providing evidence of DMPC release from the lenses.

[4] = Release of DMPC from pooled Example 6 lenses into ATF, 24 hours, HPLC; conditions: pooled lenses (35 lenses in 3.5 mL ATF and 50 lenses in 5 mL ATF), 37° C.
Description: The release profile of contact lenses with comfort agents (DMPC and L-PEG) are determined as follows. Lenses are placed in release media (artificial tear fluid (ATF) as described in Example 4) for release testing. Lenses are pooled (35 lenses in 3.5 mL ATF and 50 lenses in 5 mL ATF) and then gently agitated at 37° C. for 24 hours. At the conclusion of the 24-hour release study, the lenses are removed from the ATF. The remaining ATF is then transferred to centrifuge tubes and dried overnight under vacuum in a centrifugal evaporator.
The dried residue from the ATF is then resuspended in 1-propanol (1 mL 1-propanol for each original 5 mL ATF) using sonication to assist in resuspension. The resulting solution is analyzed for presence of DMPC using HPLC.

[5] = Total content of radio-labeled DMPC in lenses (extraction, scintillation counting); conditions: radio labeled DMPC (C14) loaded from 1-propanol
Description: (§1) Lenses are prepared according to the procedures described in Example 3, except that DMPC used in this example is a radio labeled DMPC (C14). The radio labeled DMPC is supplied by New England Nuclear (Waltham, Mass.). Lenses are loaded with radio-labeled DMPC by dipping the lenses into a solution of the radio-labeled DMPC in 1-propanol. Loaded lenses are then subjected to release testing using artificial tear fluid (ATF) as the release media. Components listed in Table 2 are dissolved in a phosphate buffered saline solution to provide a physiologically acceptable pH and osmolality.
The DMPC content of the lenses is also measured using one of two techniques: • (1) Lenses that had previously been subjected to release testing are fully extracted and the eluate is then analyzed for DMPC content. This amount of DMPC is numerically added to the DMPC already quantified in the release media. Thus, all DMPC is accounted for, cradle-to-grave. • (2) Other lenses, not subject to release testing, are also extracted to determine initial DMPC content (total loading of DM PC in lenses).

[6] = Release of radio-labeled DMPC from lens into ATF over 24 hours (scintillation counter); conditions: 1 mL ATF, radio labeled DMPC (C14)
Description: as §1
Release tests are conducted by placing a single lens in 1 mL of ATF and then incubating the sample for 24 hours. At specified time points of 0, 2, 4, 10, and 24 hours, small samples of release media are pulled and analyzed for DM PC content using a scintillation counter (C14 emits a weak beta particle).

[7] = Control lenses: DMPC loading of Example 3 lenses (enzymatic assay); conditions: control lenses of Example 3, no release test, n=5
Source text: Lenses are demolded and extracted with an organic solvent (e.g., isopropanol, 1-propanol, Dowanol, methyl ethyl ketone (MEK), or the like) and then dipped in a Dowanol PM (or alternatively MEK or 1-propanol) solution of polyacrylic acid (0.1% by weight, pH ˜2.0). The lenses are then rinsed for 60 seconds in water and then dipped in a Dowanol (or alternatively MEK or 1-propanol) solution of 1,2-dimyristoyl-sn-glycero-3-phosphocholine (DMPC, 1%) for about 60 to about 100 seconds. The lenses are then rinsed in water for 120 seconds and packaged in PBS. Lenses are then autoclaved for 30 min at 121° C. The second test is designed to try to maximize the amount of DM PC in ATF by leaving the lens in ATF for the entire release test. A single lens is placed in 1 mL ATF and incubated at 35° C. for 8 hrs. Every 30 min, the sample is vortexed and then returned to the incubator. At the conclusion of 8 hrs, the lens is removed from the ATF and the ATF is submitted for analysis. All analysis is done using an enzymatic assay method. A control set of lenses is submitted to confirm loading of the lenses with DMPC. This control sample set (n=5) show an average loading of 200 μg DMPC per lens.

average DMPC content of lens after release [2]	DMPC in the ATF equivalent per lens [3]	total DMPC content of the lenses [5]	average cumulative DMPC release from the lens ([6]; 24-hour test period, eight samples)	average loading of DMPC per lens [7]	Compound	average content per lens [1]	DMPC in ATF after release [4]	DMPC release order ([6]; 0-24 hours)
177 μg DMPC per lens	6 μg DM PC per lens	32.1±2.7 micrograms of DMPC per lens	1.3 µg	200 μg DMPC per lens	CCCCCCCCCCCCCC(=O)OC[C@H](COP(=O)([O-])OCC[N+](C)(C)C)OC(=O)CCCCCCCCCCCCC [DMPC, 1,2-dimyristoyl-sn-glycero-3-phosphocholine]	30 μg per lens	0.48 μg per mL ATF and 0.69 μg per mL ATF	first order
					N-(carbonyl-methoxypolyethylene glycol-2000)-1,2-distearoyl-sn-glycero-3-phosphoethanolamine sodium salt [L-PEG-2000]	10 μg per lens		
